Measurements published in patent US20200038412A1, “METHODS OF TREATING ALZHEIMER'S DISEASE USING AMINOSTEROL COMPOSITIONS” (Enterin, Inc., priority 2018, published 2020).
Several values for one entry are separate records, joined by “and”; a condition that tells them apart may be missing. Equal entries are not always repeated.

Key:
C. elegans model of PD = conditions: in vivo, C. elegans (Perni et al. 2017); cited from earlier work
αS = αS (Homo sapiens, UniProt P37840); conditions: in vitro; cited from earlier work
[1] = system: patients with PD and constipation; assay: Phase 2 trial Stage 2: CNS symptoms (UPDRS, MMSE, PDHQ, BDI-II, sleep diary); type: in vivo, human; conditions: for patients in whom hallucinations and delusions improved or disappeared during treatment: 6 patients with hallucinations (5) or delusions (1) at baseline; for UPDRS Part 1 (NMS): baseline 11.6 (6.51); for UPDRS Total: baseline 64.4 (23.72); for BDI-II: baseline 10.9 (7.12); for MMSE: baseline 28.4 (1.75)
From the text: Exploratory end-points, in addition to constipation, included for example, (i) depression assessed using the Beck Depression Inventory (BDI-II) (Steer et al. 2000) and Unified Parkinson's Disease Rating Scale (UPDRS); (ii) cognition assessed using the Mini Mental State Examination (MMSE) (Palsteia et al. 2018), Unified Parkinson's Disease Rating Scale (UPDRS), and Trail Making Test (TMT); (iii) sleep and REM-behavior disorder (RBD) using a daily sleep diary, I-Button Temperature Assessment, a REM sleep behavior disorder (RBD) questionnaire (RBDQ) (Stiasny-Kolster et al. 2007), and the UPDRS; (iv) hallucinations assessed using the PD hallucinations questionnaire (PDHQ) (Papapetropoulos et al. 2008), the UPDRS, and direct questioning; (v) fatigue using the Parkinson's Disease Fatigue Scale (PFS-16) and the UPDRS; (vi) motor functions using the UPDRS; and (vii) non-motor functions using the UPDRS.
Assessments were made at baseline and at the end of the fixed dose and washout periods. Circadian system status was evaluated by continuously monitoring wrist skin temperature (Thermochron iButton DS1921H; Maxim, Dallas) following published procedures (Sarabia et al. 2008).
An exploratory analysis was done with respect to the sleep data, the body temperature data, mood, fatigue, hallucinations, cognition and other motor and non-motor symptoms of PD. Continuous measurements within a subject were compared with a paired t-test and continuous measurements between subject groups were compared with a two-group t-test. Categorical data were compared with a chi-squared test or a Fisher's exact test if the expected cell counts are too small for a chi-squared test.
CNS symptoms were evaluated at baseline and at the end of the fixed dose period and the wash-out period (Table 12). Total UPDRS score was 64.4 at baseline, 60.6 at the end of the fixed dose period and 55.7 at the end of the wash-out period (p=0.002); similarly, the motor component of the UPDRS improved from 35.3 at baseline to 33.3 at the end of fixed dose to 30.2 at the end of wash-out (p=0.006). MMSE improved from 28.4 at baseline to 28.7 during treatment and to 29.3 during wash-out (p=0.0006). […] PDHQ improved from 1.3 at baseline to 1.8 during treatment and 0.9 during wash-out (p=0.03). Hallucinations were reported by 5 patients at baseline and delusions in 1 patient. […] The frequency of arm or leg thrashing reported in the sleep diary diminished progressively from 2.2 episodes/week at baseline to 0 at maximal dose. […] Unlike stool-related indices, the improvement in many CNS symptoms persisted during wash-out.

[2] = system: patients with PD and constipation; assay: Phase 2 trial Stage 1: adverse events; type: in vivo, human
From the text: (§1) Tolerability limits included diarrhea or vomiting.

[3] = system: patients with PD and constipation; assay: Phase 2 trial Stage 1: bowel (prokinetic) response to single escalating oral doses; type: in vivo, human; conditions: Stage 1, single oral dose
Procedure: Following successful screening, all subjects underwent a 14-day run-in period where the degree of constipation was assessed through a validated daily log (Zinsmeister et al. 2013) establishing baseline CSBMs/week. Subjects with an average of <3 CSBMs/week proceeded to dosing.
as §1

[4] = Stage 2, end of fixed dose, mean (SD), n = 34
[5] = Stage 2, end of wash-out, mean (SD)
[6] = Stage 2, fixed dose, mean (SD), n = 34
[7] = Stage 1, 10 dosed, unrelated to ENT-01

## CC(C)[C@@H](CC[C@@H](C)[C@H]1CC[C@H]2[C@@H]3[C@H](O)C[C@H]4C[C@@H](NCCCNCCCCN)CC[C@]4(C)[C@H]3CC[C@]12C)OS(=O)(=O)O (single isomer, unassigned) [squalamine (ENT-01), squalamine]
C. elegans model of PD
  formation of aggregates of αS: inhibit the formation of aggregates of αS
αS
  displacement of αS from membranes: can displace αS from membranes
[1]
  patients in whom hallucinations and delusions improved or disappeared during treatment: 5 of 6
[1]; listed as ENT-01
  patients in whom hallucinations and delusions improved or disappeared during treatment: five
[1]; listed as aminosterol
  patients in whom hallucinations and delusions improved or disappeared during treatment: five and 5 of 6
[1]; 7.1 hours at baseline to 8.4 hours at 250 mg
  increase of total sleep time: 18%
[1]; [4]
  UPDRS Part 1 (NMS): 10.6 (6.18))
  UPDRS Total: 60.6
[1]; Stage 2, end of fixed dose, mean (SD), n = 34, listed as Squalamine (ENT-01)
  UPDRS Total: 60.6 (25.60)
[1]; [5]
  UPDRS Part 1 (NMS): 9.5 (5.27)
  UPDRS Total: 55.7
[1]; Stage 2, end of wash-out, mean (SD), listed as Squalamine (ENT-01)
  UPDRS Total: 55.7 (23.69)
[1]; [6]
  BDI-II: 9.9 (6.45)
  MMSE: 28.7 (1.9)
[1]; Stage 2, wash-out, mean (SD), baseline 1.3 (2.99)
  PDHQ: 0.9 (2.33)
[1]; Stage 2, wash-out, mean (SD)
  BDI-II: 8.7 (5.19)
  MMSE: 29.3 (1.06)
[1]; at maximal dose, baseline 2.2
  frequency of arm or leg thrashing reported in the sleep diary: 0 episodes/week
[1]; baseline 2.2 episodes/week to 0 at maximal dose
  improvement of frequency of arm or leg thrashing: 100%
[1]; baseline 10.9 to wash-out 8.7
  improvement in depression scoring (BDI-II): 20%
[1]; baseline 11.6 to wash-out 9.5, listed as aminosterol
  improvement of UPDRS Part 1: ~20% and 18%
[1]; baseline 64.4 to end of wash-out 55.7
  improvement of total UPDRS score: 13.5%
[1]; beyond 125 mg
  total sleep time versus baseline: consistently higher than baseline
[1]; one patient
  time patient remained free of hallucinations following cessation of dosing: 1 month
[1]; one patient, colonic prokinetic dose of 175 mg not reached
  dose at which hallucinations disappeared: 100 mg
[2]; Stage 1
  AEs confined to the GI tract: 88%
[2]; Stage 1, 25 mg
  Diarrhea (common adverse events by dose): 1
  Nausea (common adverse events by dose): 0
  Vomiting (common adverse events by dose): 0
[2]; Stage 1, 50 mg
  Diarrhea (common adverse events by dose): 1
  Nausea (common adverse events by dose): 0
  Vomiting (common adverse events by dose): 0
[2]; Stage 1, 75 mg
  Diarrhea (common adverse events by dose): 1
  Nausea (common adverse events by dose): 0
  Vomiting (common adverse events by dose): 0
[2]; Stage 1, 100 mg
  Diarrhea (common adverse events by dose): 0
  Nausea (common adverse events by dose): 1
  Vomiting (common adverse events by dose): 1
[2]; Stage 1, 125 mg
  Diarrhea (common adverse events by dose): 1
  Nausea (common adverse events by dose): 2
  Vomiting (common adverse events by dose): 1
[2]; Stage 1, 150 mg
  Diarrhea (common adverse events by dose): 1
  Nausea (common adverse events by dose): 0
  Vomiting (common adverse events by dose): 0
[2]; Stage 1, 175 mg
  Diarrhea (common adverse events by dose): 1
  Nausea (common adverse events by dose): 1
  Vomiting (common adverse events by dose): 0
[2]; Stage 1, 200 mg
  Diarrhea (common adverse events by dose): 0
  Nausea (common adverse events by dose): 2
  Vomiting (common adverse events by dose): 0
[2]; Stage 1, 4/10 patients
  patients with diarrhea: 40%
  patients with nausea: 40%
[2]; Stage 1, 10 dosed
  Abdominal pain, Mild: 2 (20) n, %
  Abdominal pain, Moderate: 3 (30) n, %
  Blood in urine, Moderate: 0 n, %
  Diarrhea, Mild: 1 (10) n, %
  Diarrhea, Moderate: 3 (30) n, %
  Diarrhea, Severe: 0 n, %
  Difficulty falling asleep, Mild: 0 n, %
  Difficulty falling asleep, Moderate: 0 n, %
  Dizziness, Mild: 0 n, %
  Dizziness, Moderate: 0 n, %
  Eye infection, Mild: 0 n, %
  Eye infection, Moderate: 0 n, %
  Flatulence, Mild: 2 (20) n, %
  Flatulence, Moderate: 0 n, %
  Headache, Mild: 1 (10) n, %
  Headache, Moderate: 0 n, %
  Increased urinary frequency, Mild: 0 n, %
  Increased urinary frequency, Moderate: 0 n, %
  Loss of appetite, Moderate: 0 n, %
  Lower GI bleed, Severe: 0 n, %
  Nausea, Mild: 4 (40) n, %
  Nausea, Moderate: 0 n, %
  Skin lesions-rash, Mild: 0 n, %
  Skin lesions-rash, Moderate: 0 n, %
  Urinary retention, Mild: 0 n, %
  Urinary retention, Moderate: 0 n, %
  Urinary tract infection, Mild: 0 n, %
  Urinary tract infection, Moderate: 0 n, %
  Vomiting, Mild: 1 (10) n, %
  Vomiting, Moderate: 0 n, %
  Worsening acid reflux, Mild: 0 n, %
  Worsening acid reflux, Moderate: 0 n, %
  Worsening hemorrhoid, Mild: 0 n, %
  Worsening hemorrhoid, Moderate: 0 n, %
[2]; [7]
  Blood in urine, Mild: 1 (10) n, %
  Loss of appetite, Mild: 1 (10) n, %
[3]; 25 mg
  cumulative response rate (CSBM within 24 hours of dosing): 25%
[3]; 200 mg (maximum)
  cumulative response rate (CSBM within 24 hours of dosing): 80%
